For one assay, the system named is HCT116 cells. Put plainly: Proliferation assay with isogenic cell line pair: parental HCT116 (S45del/+) and isogenic derivative lacking mutated CTNNB1. The format is cell-based, human. The following applies: for Δefficacy: difference in maximum percentage effect, isogenic (−/+) versus parental HCT116 (S45del/+), negative = parental more sensitive.
Assay [1] has as its system CTNNB1-mutant cancer cell lines (A427, LS 174T, HCT116, SW48). Kind of assay: Cell proliferation assays, panel of sixty-six cancer cell lines: CTNNB1-mutant cell lines. Type of assay: cell-based, human.

As to `CCc1n[nH]c(CC)c1NC(=O)c1ccn2c1CCc1cnc(Nc3ccc(N4CCN(C)CC4)cc3OC(F)F)nc1-2` [Example 12, N-(3,5-diethyl-1H-pyrazol-4-yl)-2-[2-(difluoromethoxy)-4-(4-methylpiperazin-1-yl)anilino]-5,6-dihydropyrimido[4,5-e]indolizine-7-carboxamide], the Δefficacy in the assay with HCT116 cells is −18.

With `COc1ccc(Oc2cc(NCC3CCOCC3)c3ncc(-c4ccc(C(=O)NC5CC5)c(C)c4)n3n2)c(F)c1F` [Example 5, N-cyclopropyl-4-[6-(2,3-difluoro-4-methoxy-phenoxy)-8-(tetrahydropyran-4-ylmethylamino)imidazo[1,2-b]pyridazin-3-yl]-2-methyl-benzamide, reference compound], in the assay on HCT116 cells, the Δefficacy is −26. As for `COc1cc(C(=O)NC2CCOCC2)ccc1Nc1ncc2c(n1)-n1ccc(C(=O)Nc3c(C)cccc3C)c1CC2` [Example 8, N-(2,6-dimethylphenyl)-2-[2-methoxy-4-(tetrahydropyran-4-ylcarbamoyl)anilino]-5,6-dihydropyrimido[4,5-e]indolizine-7-carboxamide], the ΔpIC50 is listed as −0.29 in the assay with HCT116 cells and −0.57 in assay [1]. Also, the Δefficacy in the assay with HCT116 cells is on record as −11. The IC50 in assay [1] (Homo sapiens, 120 h, read-out: pIC50 average Mutant (converted)) was 11 nM. Regarding `COCC(=O)N1CCN(c2ccc(Nc3ncc4c(n3)-n3ccc(C(=O)Nc5c(C)cccc5C)c3CC4)c(OC)c2)CC1` [Example 17, N-(2,6-dimethylphenyl)-2-[2-methoxy-4-[4-(2-methoxyacetyl)piperazin-1-yl]anilino]-5,6-dihydropyrimido[4,5-e]indolizine-7-carboxamide], the Δefficacy in the assay with HCT116 cells is −16.

For the origin of these results see patent US11208696B2, “Prognostic biomarkers for TTK inhibitor chemotherapy” (NETHERLANDS TRANSLATIONAL RESEARCH CENTER B.V., priority 2015, dated 2021).
